Laboratory results as given in patent publication US20170008888A1 (KYORIN PHARMACEUTICAL CO., LTD., priority 2014, published 2017).
Marks after values point to notes of the source that are not given here.

Key:
[1] = system: DNFB-induced ear inflammation mouse model; assay: DNFB-induced ear inflammation (contact hypersensitivity) mouse model: ear weight; type: in vivo, mouse (Balb/c)
Description: In vivo T-cell mediated immune response was examined in a mouse model of CHS using the hapten dinitrofluorobenzene (DNFB) as the induction agent. Method for sensitization and elicitation of DNFB-induced CHS was modified from Xu et al. J. Exp. Med. 1996. 183:1001-1012. On Days 0 and 1 (sensitization), 20 μL of 0.5% v/v DNFB in acetone:olive oil (4:1) was applied to each hindpaw of 8 week old male mice (Balb/c, Charles River Laboratories; 10 mice per group unless otherwise noted). On Day 5 (elicitation) 10 μL of 0.2% v/v DNFB in acetone: olive oil (4:1) was applied to the dorsal surface of the right ear of each animal; 10 μL of acetone: olive oil (4:1) was applied to the dorsal surface of the left ear as control. Treatments were administered by group as indicated in the table below; on days when DNFB was used, the QD and the morning dose of BID as appropriate were administered 30 minutes-1 hr. prior to DNFB application. […] Approximately 24 hours after elicitation (Day 6), a 7 mm tissue punch from the central portion of both ears was collected and wet weights measured. The primary functional assessment was the difference in wet weights of the right (DNFB) vs. left (vehicle) ears compared to the vehicle treatment (Vehicle1-S) as an indicator of inflammation (Table 17). Ear tissue punches were flash frozen, stored at −70° C. and analyzed for cytokines (see below). Body weights of the mice were measured at baseline and at end of study, and there were no significant changes in weight in any treatment group during the study (data not shown).

[2] = system: Imiquimod-induced psoriasis mouse model; assay: Imiquimod (IMQ)-induced acute model of psoriasis in mouse: skin thickness, erythema, scaling; type: in vivo, mouse (Balb/c)
Description: Material and methods for the IMQ study were adapted from van der Fits et al. J Immunol., 2009, 182: 5836-5845. Eight week old male Balb/c mice (Harlan) received a daily topical dose of 62.5 mg 5% IMQ cream (Aldara™, Medicis) equivalent to 3.125 mg IMQ, on the shaved back (approximately 2×3.5 cm patch) and dorsal surface of the right ear for 6 consecutive days. Sham control mice were treated similarly with control cream (Hydrous Emulsified Base, HEB, Cream, Fagron). Treatments were administered by group as indicated in Table 1 below prior to daily application of IMQ (QD and morning dose of BID regimens), n=10 for all groups. […] Body weights and scoring of induced clinical disease were performed after dosing (Days 1-7) but prior to IMQ application (Days 1-6) on Days 1 (baseline), 3, 4, 6, 8. Mice were sacrificed on Day 8 and treated back skin tissue collected and divided for fixation for histopathology (a 12 mm punch in mid-back) the remainder flash frozen; right (IMQ) and left (control) ears, spleen (after wet weight) and lung were also individually collected and flash frozen, and stored at −70° C. for subsequent biochemical analyses. Statistics were performed using one-way ANOVA with Dunnett's post-hoc test comparing treated groups to the vehicle group, using InStat software (GraphPad, La Jolla, Calif.).
The severity of clinical disease was assessed by
1) skin thickness dial gauge micrometer measurements (duplicate) of the ears and the dorsal skin at the midline of the back (equal to double true measure of dorsal skin thickness)
2) erythema and scaling, independently scored on a scale from 0-4: 0=none, 1=slight, 2=moderate, 3=marked, 4=very marked with intermediate increments of 0.5 allowed.
Clinical disease assessments included erythema, scaling, skin thickness and cumulative disease severity scores and the change in skin thickness of the ears and dorsal back skin over time compared to baseline measurements (Tables 19 and 20). Body weights of the mice were measured at baseline and at end of study, and there were no significant changes in weight in any treatment group during the study (data not shown).

[3] = 25 mg/kg PO, BID on Day 5 (elicitation)
[4] = 60 mg/kg PO, BID Days 0-5 (from sensitization)
[5] = 60 mg/kg PO, BID on Day 5 (elicitation)

CCOc1cc(C(=O)N2CCCN(C)CC2)ccc1Nc1cc2c(cn1)N(C)C(=O)c1ccccc1N2C [Compound 8]
% Reduction Weight Increase Vs. Vehicle 1 Weight Increase [1, 3]: −9.4%
% Reduction Weight Increase Vs. Vehicle 1 Weight Increase [1, 4]: −38.5%
% Reduction Weight Increase Vs. Vehicle 1 Weight Increase [1, 5]: −22.6%
Clinical Score Erythema (0-4), AVG Score ([2]; Day 1 (baseline), 60 mpk BID): 0
Clinical Score Scaling (0-4), AVG Score ([2]; Day 1 (baseline), 60 mpk BID): 0
% Mean DORSAL BACK THICKNESS versus day 1, AVG ([2]; Day 3, 60 mpk BID): 33.49%
% Mean LEFT EAR THICKNESS [Control] versus day 1, AVG ([2]; Day 3, 60 mpk BID): −5.16%
% Mean RIGHT EAR THICKNESS [IMQ] versus day 1, AVG ([2]; Day 3, 60 mpk BID): 0.09%
Clinical Score Erythema (0-4), AVG Score ([2]; Day 3, 60 mpk BID): 1.25
Clinical Score Scaling (0-4), AVG Score ([2]; Day 3, 60 mpk BID): 0.5
% Mean DORSAL BACK THICKNESS versus day 1, AVG ([2]; Day 4, 60 mpk BID): 43.51%
% Mean LEFT EAR THICKNESS [Control] versus day 1, AVG ([2]; Day 4, 60 mpk BID): −6.51%
% Mean RIGHT EAR THICKNESS [IMQ] versus day 1, AVG ([2]; Day 4, 60 mpk BID): 5.74%
Clinical Score Erythema (0-4), AVG Score ([2]; Day 4, 60 mpk BID): 1.4
Clinical Score Scaling (0-4), AVG Score ([2]; Day 4, 60 mpk BID): 0.6
% Mean DORSAL BACK THICKNESS versus day 1, AVG ([2]; Day 6, 60 mpk BID): 74.47** %
% Mean LEFT EAR THICKNESS [Control] versus day 1, AVG ([2]; Day 6, 60 mpk BID): 1.15%
% Mean RIGHT EAR THICKNESS [IMQ] versus day 1, AVG ([2]; Day 6, 60 mpk BID): 36.67* %
Clinical Score Erythema (0-4), AVG Score ([2]; Day 6, 60 mpk BID): 2.15
Clinical Score Scaling (0-4), AVG Score ([2]; Day 6, 60 mpk BID): 2.8
% Mean DORSAL BACK THICKNESS versus day 1, AVG ([2]; Day 8, 60 mpk BID): 32.42^NS %
% Mean LEFT EAR THICKNESS [Control] versus day 1, AVG ([2]; Day 8, 60 mpk BID): −2.25%
% Mean RIGHT EAR THICKNESS [IMQ] versus day 1, AVG ([2]; Day 8, 60 mpk BID): 33.58** %
Clinical Score Erythema (0-4), AVG Score ([2]; Day 8, 60 mpk BID): 1.95
Clinical Score Scaling (0-4), AVG Score ([2]; Day 8, 60 mpk BID): 1.7

CCOc1cc(C(=O)N2CCC(N3CCCC3)CC2)ccc1Nc1cc2c(cn1)N(C)C(=O)c1ccccc1N2C [Compound 46, 3-(2-Ethoxy-4-(4-(pyrrolidin-1-yl)piperidine-1-carbonyl)phenylamino)-5,11-dimethyl-5H-benzo[e]pyrido[3,4-b][1,4]diazepin-10(11H)-one]
% Reduction Weight Increase Vs. Vehicle 1 Weight Increase [1, 3]: −39.5%
% Reduction Weight Increase Vs. Vehicle 1 Weight Increase [1, 4]: −39.5%
% Reduction Weight Increase Vs. Vehicle 1 Weight Increase [1, 5]: −40.5%
Clinical Score Erythema (0-4), AVG Score ([2]; Day 1 (baseline), 60 mpk BID): 0
Clinical Score Scaling (0-4), AVG Score ([2]; Day 1 (baseline), 60 mpk BID): 0
Clinical Score Erythema (0-4), AVG Score ([2]; Day 1 (baseline), 60 mpk QD): 0
Clinical Score Scaling (0-4), AVG Score ([2]; Day 1 (baseline), 60 mpk QD): 0
% Mean DORSAL BACK THICKNESS versus day 1, AVG ([2]; Day 3, 25 mpk BID): 29.55%
% Mean LEFT EAR THICKNESS [Control] versus day 1, AVG ([2]; Day 3, 25 mpk BID): −7.42%
% Mean RIGHT EAR THICKNESS [IMQ] versus day 1, AVG ([2]; Day 3, 25 mpk BID): 6.71%
% Mean DORSAL BACK THICKNESS versus day 1, AVG ([2]; Day 3, 60 mpk BID): 34.79%
% Mean LEFT EAR THICKNESS [Control] versus day 1, AVG ([2]; Day 3, 60 mpk BID): −8.07%
% Mean RIGHT EAR THICKNESS [IMQ] versus day 1, AVG ([2]; Day 3, 60 mpk BID): 3.35%
Clinical Score Erythema (0-4), AVG Score ([2]; Day 3, 60 mpk BID): 1.15
Clinical Score Scaling (0-4), AVG Score ([2]; Day 3, 60 mpk BID): 0.5
% Mean DORSAL BACK THICKNESS versus day 1, AVG ([2]; Day 3, 60 mpk QD): 41.12%
% Mean LEFT EAR THICKNESS [Control] versus day 1, AVG ([2]; Day 3, 60 mpk QD): −8.74%
% Mean RIGHT EAR THICKNESS [IMQ] versus day 1, AVG ([2]; Day 3, 60 mpk QD): 3.71%
Clinical Score Erythema (0-4), AVG Score ([2]; Day 3, 60 mpk QD): 1.05
Clinical Score Scaling (0-4), AVG Score ([2]; Day 3, 60 mpk QD): 0.5
% Mean DORSAL BACK THICKNESS versus day 1, AVG ([2]; Day 4, 25 mpk BID): 43.62%
% Mean LEFT EAR THICKNESS [Control] versus day 1, AVG ([2]; Day 4, 25 mpk BID): −5.56%
% Mean RIGHT EAR THICKNESS [IMQ] versus day 1, AVG ([2]; Day 4, 25 mpk BID): 12.03%
% Mean DORSAL BACK THICKNESS versus day 1, AVG ([2]; Day 4, 60 mpk BID): 45.39%
% Mean LEFT EAR THICKNESS [Control] versus day 1, AVG ([2]; Day 4, 60 mpk BID): −3.95%
% Mean RIGHT EAR THICKNESS [IMQ] versus day 1, AVG ([2]; Day 4, 60 mpk BID): 11.25%
Clinical Score Erythema (0-4), AVG Score ([2]; Day 4, 60 mpk BID): 1.3
Clinical Score Scaling (0-4), AVG Score ([2]; Day 4, 60 mpk BID): 0.55
% Mean DORSAL BACK THICKNESS versus day 1, AVG ([2]; Day 4, 60 mpk QD): 54.57%
% Mean LEFT EAR THICKNESS [Control] versus day 1, AVG ([2]; Day 4, 60 mpk QD): −7.01%
% Mean RIGHT EAR THICKNESS [IMQ] versus day 1, AVG ([2]; Day 4, 60 mpk QD): 9.53%
Clinical Score Erythema (0-4), AVG Score ([2]; Day 4, 60 mpk QD): 1.3
Clinical Score Scaling (0-4), AVG Score ([2]; Day 4, 60 mpk QD): 0.6
% Mean DORSAL BACK THICKNESS versus day 1, AVG ([2]; Day 6, 25 mpk BID): 84.46* %
% Mean LEFT EAR THICKNESS [Control] versus day 1, AVG ([2]; Day 6, 25 mpk BID): −1.35%
% Mean RIGHT EAR THICKNESS [IMQ] versus day 1, AVG ([2]; Day 6, 25 mpk BID): 37.60* %
% Mean DORSAL BACK THICKNESS versus day 1, AVG ([2]; Day 6, 60 mpk BID): 72.41** %
% Mean LEFT EAR THICKNESS [Control] versus day 1, AVG ([2]; Day 6, 60 mpk BID): 1.37%
% Mean RIGHT EAR THICKNESS [IMQ] versus day 1, AVG ([2]; Day 6, 60 mpk BID): 33.34** %
Clinical Score Erythema (0-4), AVG Score ([2]; Day 6, 60 mpk BID): 1.65
Clinical Score Scaling (0-4), AVG Score ([2]; Day 6, 60 mpk BID): 2.55
% Mean DORSAL BACK THICKNESS versus day 1, AVG ([2]; Day 6, 60 mpk QD): 90.77^NS %
% Mean LEFT EAR THICKNESS [Control] versus day 1, AVG ([2]; Day 6, 60 mpk QD): 8.65%
% Mean RIGHT EAR THICKNESS [IMQ] versus day 1, AVG ([2]; Day 6, 60 mpk QD): 38.11* %
Clinical Score Erythema (0-4), AVG Score ([2]; Day 6, 60 mpk QD): 2.25
Clinical Score Scaling (0-4), AVG Score ([2]; Day 6, 60 mpk QD): 3.05
% Mean DORSAL BACK THICKNESS versus day 1, AVG ([2]; Day 8, 25 mpk BID): 46.07^NS %
% Mean LEFT EAR THICKNESS [Control] versus day 1, AVG ([2]; Day 8, 25 mpk BID): −3.26%
% Mean RIGHT EAR THICKNESS [IMQ] versus day 1, AVG ([2]; Day 8, 25 mpk BID): 43.36** %
% Mean DORSAL BACK THICKNESS versus day 1, AVG ([2]; Day 8, 60 mpk BID): 41.36^NS %
% Mean LEFT EAR THICKNESS [Control] versus day 1, AVG ([2]; Day 8, 60 mpk BID): −1.92%
% Mean RIGHT EAR THICKNESS [IMQ] versus day 1, AVG ([2]; Day 8, 60 mpk BID): 40.66** %
Clinical Score Erythema (0-4), AVG Score ([2]; Day 8, 60 mpk BID): 1.3
Clinical Score Scaling (0-4), AVG Score ([2]; Day 8, 60 mpk BID): 1.45
% Mean DORSAL BACK THICKNESS versus day 1, AVG ([2]; Day 8, 60 mpk QD): 45.99^NS %
% Mean LEFT EAR THICKNESS [Control] versus day 1, AVG ([2]; Day 8, 60 mpk QD): 0.14%
% Mean RIGHT EAR THICKNESS [IMQ] versus day 1, AVG ([2]; Day 8, 60 mpk QD): 48.04** %
Clinical Score Erythema (0-4), AVG Score ([2]; Day 8, 60 mpk QD): 1.1
Clinical Score Scaling (0-4), AVG Score ([2]; Day 8, 60 mpk QD): 1.7
